For one substance, bioavailability and aqueous solubility results are on record in US20100209496A1, “LIQUID AND SEMI-SOLID PHARMACEUTICAL FORMULATIONS FOR ORAL ADMINISTRATION OF A SUBSTITUTED AMIDE” (priority 2006, published 2010).

Series [1] is described as follows: Bioavailability (drug plasma levels) from liquid-filled capsule dosage form. It counts as in vivo. The following applies: compound in solution in liquid and semi-solid excipients, versus crystalline solid.
Series [2] is described as follows: Compound I Form I solubility in various liquid vehicles. It counts as physicochemical. The following applies: aqueous.
A short description of series [3]: Bioavailability when dosed as a crystalline solid (dogs). The class given is in vivo.
Series [4] is described as follows: Bioavailability when dosed as a crystalline solid (rats). It counts as in vivo.

For the substance “3-[(3aR,4R,5S,7aS)-5-{(1R)-1-[3,5-bis(Trifluoromethyl)phenyl]ethoxy}-4-(4-fluorophenyl)-octahydro-2H-isoindol-2-yl]cyclopent-2-en-1-one [Compound I]”, the bioavailability result in series [1] is recorded as “increased dramatically”; in series [3], “poorly bioavailable”; in series [4], “poorly bioavailable”. Besides, the aqueous solubility (as a rule, how much of the substance goes into solution per volume) in series [2] is less than 0.2 µg/mL.
